Source: US20040171489A1, “Synergistic active compound combinations for controlling harmful plants” (priority 1998, published 2004)

Assays:
[1] = tested on: Sorghum verticilliflorum; assay: Example 13 field trial, 2- to 4-leaf stage: herbicidal effect; format: in vivo; conditions: 17 days after application
Protocol: (§1) The herbicidal efficacy of the active compounds or active compound mixtures was scored visually using the treated plots in comparison to untreated control plots. The damage and development of all above-ground parts of the plants were recorded. Scoring was carried out using a percentage scale (100% effect=all plants killed; 50% effect=50% of the plants and the green parts of the plants killed; 0% effect=no noticeable effect=like control plot. The scores of in each case 4 plots were averaged.
(§2) If the observed activity values already exceed the formal sum of the values for the trials with the individual applications, they also exceed the expected value according to Colby which is calculated using the following formula and which is likewise considered to be an indication of synergism (cf. S. R. Colby; in Weeds 15 (1967) p. 20 to 22):
(§3) Crop plants were grown outdoors on plots under natural outdoor conditions, and seeds or rhizome pieces of typical harmful plants were laid out or the natural weed growth was utilized. Treatment with the compositions according to the invention was carried out after the harmful plants had emerged and the crop plants were, generally, at the 2- to 4-leaf stage; in some cases (as stated), application of individual active compounds or active compound combinations was carried out pre-emergence (cf. Section 1) or post-emergence (cf. Section 2) or as a sequential treatment partly pre-emergence and/or post-emergence. After the application, for example 2, 4, 6 and 8 weeks after the application, the effect of the preparations was scored visually by comparison with untreated controls (cf. scoring in Section 1). In the field trial as well, the compositions according to the invention have synergistic herbicidal activity against a broad spectrum of economically important weed grasses and broad-leaved weeds. […] Moreover, the effects in essential phases of the scoring period were above the expected values according to Colby, also indicating synergism. In contrast, the crop plants were, as a consequence of the treatments with the herbicidal compositions, damaged only to a small degree, if at all.

[2] = tested on: Monochoria vaginalis; assay: Example 22 field trial, 2-leaf stage: herbicidal effect; format: in vivo; conditions: 14 days after application
Protocol: as §1, §2, §3

[3] = tested on: winter barley; assay: Example 9 field trials, application 1-3 leaf stage broad-leaved weeds: crop damage; format: in vivo, Hordeum vulgare; conditions: 100 g of ai/ha; 120 to 160 days after application
Protocol: as §1, §2
as §3, with “In contrast, the crop plants were, as a consequence of the treatments with the herbicidal compositions, damaged only to a small degree, if at all.” left out

[4] = tested on: Matricaria chamomilla; assay: Example 16 field trial, post-emergence, 2- to 3-leaf stage: herbicidal effect; format: in vivo; conditions: 50 g of ai/ha; 69 days after application
Protocol: as §1, §2, §3

[5] = tested on: Viola arvensis; assay: as above; format: in vivo; conditions: 50 g of ai/ha; 69 days after application
Protocol: as §1, §2, §3

[6] = tested on: Papaver rhoeas; assay: as above; format: in vivo; conditions: 50 g of ai/ha; 69 days after application
Protocol: as §1, §2, §3

[7] = tested on: Lamium ssp.; assay: as above; format: in vivo; conditions: 50 g of ai/ha; 69 days after application
Protocol: as §1, §2, §3

[8] = tested on: Galium aparine; assay: Example 10 pre-emergence application, fall: herbicidal effect; format: in vivo; conditions: 169 days after application
Excerpt: (§4) Seeds or rhizome pieces of monocotyledonous and dicotyledonous weed plants are placed in sandy loam soil in pots and covered with soil. The compositions, formulated in the form of concentrated aqueous solutions, wettable powders or emulsion concentrates, are then applied to the surface of the soil cover as aqueous solution, suspension or emulsion at an application rate of 600 to 800 l of water/ha (converted), in various dosages. After the treatment, the pots are placed in a greenhouse and kept under good growth conditions for the weeds. After the test plants have emerged, the damage to the plants or the negative effects on the emergence is scored visually after a test period of 3 to 4 weeks by comparison with untreated controls. As shown by the test results, the compositions according to the invention have good herbicidal pre-emergence activity against a broad spectrum of weed grasses and broad-leaved weeds.
as §1, §2, §3

[9] = tested on: winter wheat; assay: Example 9 field trials, application 1-3 leaf stage broad-leaved weeds: crop damage; format: in vivo, Triticum aestivum; conditions: 100 g of ai/ha; 120 to 160 days after application
Protocol: as §1, §2
as §3, with “In contrast, the crop plants were, as a consequence of the treatments with the herbicidal compositions, damaged only to a small degree, if at all.” left out

[10] = tested on: Ipomoea hederacea; assay: Example 17 field trial, pre-emergence: herbicidal effect; format: in vivo; conditions: 16 days after application
Excerpt: as §4, §1, §2, §3

[11] = tested on: Setaria faberi; assay: as above; format: in vivo; conditions: 16 days after application
Excerpt: as §4, §1, §2, §3

[12] = tested on: Matricaria chamomilla; assay: Example 14 field trial, 2- to 4-leaf stage: herbicidal effect; format: in vivo; conditions: 28 days after application
Protocol: as §1, §2, §3

[13] = tested on: Oryza sativa (rice); assay: Example 21 field trial, 4-leaf stage: crop damage; format: in vivo; conditions: 42 days after application
Protocol: as §1, §2
as §3, with “In contrast, the crop plants were, as a consequence of the treatments with the herbicidal compositions, damaged only to a small degree, if at all.” left out

[14] = tested on: Zea mays (corn); assay: Example 19 field trial, 4 to 5-leaf stage: crop damage; format: in vivo; conditions: 100 g of ai/ha; 31 days after application
Protocol: as §1, §2
Crop plants were grown outdoors on plots under natural outdoor conditions, and seeds or rhizome pieces of typical harmful plants were laid out or the natural weed growth was utilized. […] After the application, for example 2, 4, 6 and 8 weeks after the application, the effect of the preparations was scored visually by comparison with untreated controls (cf. scoring in Section 1). […]

[15] = tested on: winter wheat; assay: Example 15 field trial, 2- to 4-leaf stage: crop damage; format: in vivo, Triticum aestivum; conditions: 28 days after application
Protocol: as §1, §2, §3

[16] = tested on: summer wheat; assay: Example 14 field trial, 2- to 4-leaf stage: crop damage; format: in vivo, Triticum aestivum; conditions: 28 days after application
Protocol: The damage and development of all above-ground parts of the plants were recorded.
Crop plants were grown outdoors on plots under natural outdoor conditions, and seeds or rhizome pieces of typical harmful plants were laid out or the natural weed growth was utilized.

## CC(C)(F)c1nc(N)nc(NC(CCc2ccccc2)C2CCC2)n1 (stereo not drawn) [(A1), 4-amino-6-(1-fluoro-1-methylethyl)-2-(3-phenyl-1-cyclobutylpropylamino)-1,3,5-triazine]
[1]; 62.5 g of ai/ha
  herbicidal effect, SORVE: 35%
[1]; 125 g of ai/ha
  herbicidal effect, SORVE: 50%
[2]; 25 g of ai/ha
  herbicidal effect, MOOVA: 3%
[2]; 50 g of ai/ha
  herbicidal effect, MOOVA: 90%
[2]; 100 g of ai/ha
  herbicidal effect, MOOVA: 95%
[3]
  damage, HORVW: 0%
[4]
  herbicidal effect (%), MATCH: 19%
[5]
  herbicidal effect (%), VIOAR: 90%
[6]
  herbicidal effect (%), PAPRH: 96%
[7]
  herbicidal effect (%), LAMSS: 53%
[8]; 50 g of ai/ha
  herbicidal effect, GALAP: 45%
[8]; 100 g of ai/ha
  herbicidal effect, GALAP: 45%
[9]
  damage, TRZAW: 0%
[10]; 50 g of ai/ha
  herbicidal effect, IPOHE: 85%
[10]; 100 g of ai/ha
  herbicidal effect, IPOHE: 93%
[11]; 50 g of ai/ha
  herbicidal effect, SETFA: 85%
[11]; 100 g of ai/ha
  herbicidal effect, SETFA: 94%
[12]; 25 g of ai/ha
  herbicidal effect, MATCH: 43%
[12]; 50 g of ai/ha
  herbicidal effect, MATCH: 58%
[12]; 100 g of ai/ha
  herbicidal effect, MATCH: 73%
[13]; 25 g of ai/ha
  damage, ORYSA: 0%
[13]; 50 g of ai/ha
  damage, ORYSA: 0%
[13]; 100 g of ai/ha
  damage, ORYSA: 0%
[14]
  damage, ZEAMA: 0%
[15]; 25 g of ai/ha
  damage, TRZAW: 0%
[15]; 50 g of ai/ha
  damage, TRZAW: 2%
[15]; 100 g of ai/ha
  damage, TRZAW: 2%
[16]; 25 g of ai/ha
  damage, TRZAS: 2%
[16]; 50 g of ai/ha
  damage, TRZAS: 2%
[16]; 100 g of ai/ha
  damage, TRZAS: 5%
